{
  "source": "patent US20060193916A1",
  "about": "“Formulations of peptides for periodontal and dental treatments” (Acologix, Inc., priority 2005, published 2006)",
  "key": {"[1]": {"system": "alveolar bone extraction socket", "excerpt": "One mandibular premolar per side was extracted. The intra-socket septae in the extraction socket were removed and the wound margins adapted.\nTreatment Group I (10 dogs-5 per each time point 3 days and 28 days): • a.\nTreatment Group 2 (10 dogs-5 per each time point 3 days and 28 days): • a.\nTreatment Group 3 (6 dogs-3 per each time point 3 days and 28 days): • a. Right side: create gingival flap around #407; extract #407 (section with 7011); remove intra-socket septa with 5511; radiograph; measure socket depth; soak a collagen sponge in BMP2; apply collagen sponge to socket; close gingival flap with 4-0 maxon. • b. Left side; create gingival flap around #307; extract #307 (section with 701 l); remove intra-socket septa with 551 l; radiograph; measure socket depth; soak a collagen sponge in 100 μl of saline, apply collagen sponge to socket; close gingival flap with 4-0 maxon.\nAfter the specimens were received, the specimens were processed, decalcified and embedded in paraffin. The mandible specimens were stained with Toluidine blue for osteoblast evaluations.\nHistopathological assessment of the stained section was done without knowledge of treatment group. Qualitative observations included the analysis of the underlying bone, including any soft tissue, which may have come into contact with the test material formulation. Fibrous tissue encapsulation, cellular infiltrates and inflammatory responses at the repair site and the soft tissues were also evaluated.\nStatic histomorphometric analysis was performed on sections stained with toluidine blue stain to determine the percent area of bone in-growth present within the samples using an OsteoMeasure® image analysis system, and associate software (version 4.00c). The amount and quality of the newly formed bone was scored for 0-4, respectively, and evaluated collectively. Tissue reaction such as inflammation and presence of fibrous tissue were also evaluated using the respective scoring system."}, "bone formation": {"system": "bone formation", "settings": "mice; cited from earlier work"}, "bone fracture": {"system": "bone fracture", "settings": "rats; local injection near the fracture site; cited from earlier work"}, "[2]": {"system": "primary mesenchimal stem cell culture", "settings": "in vitro; cited from earlier work"}, "human dental pulp cells": {"system": "human dental pulp cells", "settings": "cited from earlier work"}, "[3]": {"system": "dentin and pulp tissue of teeth with deep class V preparations", "assay": "Indirect pulp capping study in dogs (deep class V preparations in maxillary teeth)", "description": "Deep class V preparations were made without penetrating the pulp cavity on the buccal (labial) side of 8 maxillary teeth (2 premolars and 1 molar on each side of the oral cavity in one canine) in 10-month old Beagle dogs. A radiograph was taken to confirm location of the pulp cavity. The cavities (defects) were drilled perpendicular to the tooth axis (pulp cavity). […] The solution was left in the dry cavity for 2 minutes after which the base of the cavity was covered with Vitrebond and the teeth were sealed with composite.\nThe solution was left in the dry cavity for 2 minutes after which the cavities were filled with cotton and sealed with Cavit. The dogs in Treatment group 2 were re-treated 3× a week for 1 week (the teeth on the left side) or for 2 weeks (the teeth on the right side). […] The solution was left in the dry cavity for 2 minutes after which the cavities were filled with cotton and sealed with Cavit.\nThe teeth in treatment group 3 were used as negative (saline) or positive (Dycal) controls. Two of the 4 teeth per animal that were used as negative controls were treated with 2 uL saline. The solution was left in the dry cavity for 2 minutes after which the base of the cavity was covered with Vitrebond and the teeth were sealed with composite. The other 2 teeth used as negative control were treated for 15 sec with Scotchbond Etchant (Single Bond adhesive system), washed with water, air dried and treated with 2 uL saline. The solution was left in the dry cavity for 2 minutes after which the base of the cavity was covered with Single Bond, cured with light and the teeth were sealed with composite. The 2 teeth per animal in treatment group 3 that were used as a positive control were treated with Dycal and sealed with composite using standard operating procedures.\nAfter the specimens were received, the specimens were processed, decalcified and embedded in paraffin. The maxilla specimens were stained with Haematoxylin and eosin (H&E) for new dentin formation evaluation. For immunohistochemistry evaluations, the sections were stained with TUNEL assay for evaluation of apoptosis (score 0-4), and CD45 antibody for inflammation evaluations.\nHistopathological assessment of the stained section was done without knowledge of treatment group. Qualitative observations included the analysis of the tooth and underlying bone, including any soft tissue, which may have come into contact with the test material formulation. Cellular infiltrates (score 0-16) and inflammatory responses (score 0-4) at the repair site and the soft tissues were also evaluated."}, "osteoblastic cells": {"system": "osteoblastic cells", "settings": "comparable to growth factors such as BMP and IGF-1; cited from earlier work"}},
  "data": [
    {"sequence": "TDLQERGDNDISPFSGDGQPFKD [AC-100]", "values": [
      {"measurement": "presence of connective tissue and provisional matrix in the defects", "setting": "[1]; day 3 after the extraction", "result": "dose dependent increase"},
      {"measurement": "tissue reaction in the extraction sockets", "setting": "[1]; day 3 after the extraction", "result": "dose dependent increase in tissue reaction"},
      {"measurement": "percentage of connective tissue in the defects versus saline", "setting": "[1]; day 28", "result": "comparable"},
      {"measurement": "quality of the new bone formed in the defect", "setting": "[1]; day 28", "result": "dose dependently increases the quality of the new bone"},
      {"measurement": "rate with which the defect is filled with new bone", "setting": "[1]; day 28", "result": "dose dependently decreases the rate"},
      {"measurement": "inflammatory response versus saline control", "setting": "[1]; dog, in vivo", "result": "no significant difference"},
      {"measurement": "bone growth, multiple re-applications versus single application", "setting": "[1]; re-applied directly in the extraction sockets", "result": "not as effective as the single application regimen"},
      {"measurement": "bone growth (bone ingrowth)", "setting": "[1]; single application at surgery, 1 mg and 10 mg on a collagen sponge, 28 days", "result": "caused stimulation of bone growth"},
      {"measurement": "in vitro and in vivo bone formation activities", "setting": "bone formation", "result": "comparable to the same activities of fibroblast growth factor (FGF)"},
      {"measurement": "bone fracture healing", "setting": "bone fracture", "result": "stimulates bone fracture healing"},
      {"measurement": "proliferation and differentiation of the cells to osteoblasts", "setting": "[2]", "result": "dose dependently induce proliferation and differentiation"},
      {"measurement": "proliferation and differentiation of human dental pulp cells", "setting": "human dental pulp cells", "result": "potent activities on proliferation but not differentiation"},
      {"measurement": "maximum stimulation of new dentin formation, relative to saline", "setting": "[3]; 200 ug, 3 times per week for one week, day 28", "result": 8, "unit": "times"},
      {"measurement": "new dentin formation compared with Dycal", "setting": "[3]; 28 days post surgery, highest two doses of AC-100 (20 ug and 200 ug), depending on the application schedule", "result": "comparable to or better than Dycal"},
      {"measurement": "new dentin formation", "setting": "[3]; 28 days post surgery, versus saline negative control, single and multiple application schedules", "result": "dose dependent stimulation of new dentin formation"},
      {"measurement": "number of apoptotic cells in the pulp", "setting": "[3]; both 3 and 28 days post surgery, almost all doses applied", "result": "dose dependently decreased the number of apoptotic cells"},
      {"measurement": "new dentin formation, multiple versus single application schedule", "setting": "[3]; day 28", "result": "worked significantly better than the single application one"},
      {"measurement": "new dentin formation, single application", "setting": "[3]; highest dose of AC-100, single application, comparable to Dycal", "result": "marginal activity"},
      {"measurement": "new dentin formation, sealing with Single Bond+composite versus Vitrebond+Composite", "setting": "[3]; single application schedule, almost all doses of AC-100", "result": "worked markedly better than sealing with Vitrebond+Composite"},
      {"measurement": "apoptotic and necrotic cell death in the pulp cavities (study summary)", "setting": "[3]; summary of Example 1", "result": "almost complete reduction of inflammatory reactions as well as apoptotic or necrotic cell death"},
      {"measurement": "inflammatory reactions in the pulp cavities (study summary)", "setting": "[3]; summary of Example 1", "result": "almost complete reduction of inflammatory reactions"},
      {"measurement": "regeneration of new dentin in the defects (study summary)", "setting": "[3]; summary of Example 1", "result": "superior regeneration of new dentin tissue"},
      {"measurement": "pulp tissue reaction at the highest dose", "setting": "[3]; three days post surgery, 200 ug", "result": "completely abolishing the pulp reaction"},
      {"measurement": "pulp inflammation", "setting": "[3]; three days post surgery, almost all doses applied", "result": "completely abolishing the pulp inflammation"},
      {"measurement": "pulp tissue reaction (inflammatory and fibrosis response)", "setting": "[3]; three days post surgery, sealed with Single Bond or Vitrebond", "result": "dose dependent inhibition of the tissue reaction"},
      {"measurement": "proliferation and differentiation of osteoblastic cells", "setting": "osteoblastic cells", "result": "potent activities on proliferation and differentiation of osteoblastic cells"}
    ]}
  ]
}
